SMILES strings stand for the structures. The source made the active and inactive calls. The calls are words filed in the database; no cut-off is given here.

Results on 29 molecules are retold here after ChEMBL document CHEMBL4825684, “Design, synthesis and biological evaluation of N-anthraniloyl tryptamine derivatives as pleiotropic molecules for the therapy of malignant glioma” (Eur J Med Chem, 2021).

In data set [1] the target is T1, Prostaglandin G/H synthase 2 (Homo sapiens, UniProt P35354).
T1 sequence (P35354 whole entry): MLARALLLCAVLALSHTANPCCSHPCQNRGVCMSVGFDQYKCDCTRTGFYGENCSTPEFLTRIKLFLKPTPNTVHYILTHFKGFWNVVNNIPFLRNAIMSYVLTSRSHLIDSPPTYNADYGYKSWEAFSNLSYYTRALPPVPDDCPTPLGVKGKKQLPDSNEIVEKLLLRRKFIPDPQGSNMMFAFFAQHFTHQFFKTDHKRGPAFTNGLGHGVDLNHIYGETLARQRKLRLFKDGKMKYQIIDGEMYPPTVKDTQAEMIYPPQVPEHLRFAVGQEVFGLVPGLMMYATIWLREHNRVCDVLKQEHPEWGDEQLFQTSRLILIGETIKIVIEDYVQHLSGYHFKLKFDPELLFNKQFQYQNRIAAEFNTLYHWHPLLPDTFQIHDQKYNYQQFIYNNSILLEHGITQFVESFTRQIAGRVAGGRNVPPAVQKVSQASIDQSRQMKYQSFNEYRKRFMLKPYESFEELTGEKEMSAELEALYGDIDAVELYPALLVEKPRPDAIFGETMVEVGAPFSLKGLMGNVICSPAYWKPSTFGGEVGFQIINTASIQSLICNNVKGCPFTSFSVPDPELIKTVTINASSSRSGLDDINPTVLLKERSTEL
The data set is described as follows: Inhibition of human COX2 assessed as fluorescence by microplate reader.

Data set [2] concerns C6. As to the kind of experiment: Antiproliferative activity against rat C6 cells assessed as growth inhibition incubated for 72 hrs by CCK-8 assay. Type of data set: functional, cell-based. To be noted: C6, 72 h. (In general: Tetrazolium assays rely on reduction of a dye to a coloured formazan, in cell work by metabolically active cells.)
Another data set concerns U-87 MG. As to the kind of experiment: Antiproliferative activity against human U-87 MG cells assessed as growth inhibition incubated for 72 hrs by CCK-8 assay. Type of data set: functional, cell-based, U-87MG ATCC.
The next data set relates to U-251. As to the kind of experiment: Antiproliferative activity against human U-251 cells assessed as growth inhibition incubated for 72 hrs by CCK-8 assay. Type of data set: functional, cell-based. To be noted: U-251, 72 h.
Data set [3] relates to C6. The data set is described as follows: Antitumor activity against rat C6 cells inoculated orthotopic Sprague-Dawley rat model assessed as reduction tumor weight at 50 mg/kg, ip twice a day treated 3 days after tumor cell injection measured for 13 days after tumor implantation. It is filed as functional, organism-based. To be noted: time 3.0 day.
Data set [4] concerns C6. The data set is described as follows: Antitumor activity against rat C6 cells inoculated orthotopic Sprague-Dawley rat model assessed as reduction tumor volume at 50 mg/kg, ip twice a day treated 3 days after tumor cell injection measured for 13 days after tumor implantation. It is filed as functional, organism-based. To be noted: time 3.0 day.
In data set [5] the test system is C6. The data set is described as follows: Antitumor activity against rat C6 cells inoculated orthotopic Sprague-Dawley rat model assessed as tumor growth inhibition at 50 mg/kg, ip twice a day treated 3 days after tumor cell injection measured for 13 days after tumor implantation. To be noted: 72 h, time 3 day, read-out: TGI. Type of data set: functional.
Data set [6] has as its system C6. As to the kind of experiment: Antitumor activity against rat C6 cells inoculated orthotopic Sprague-Dawley rat model assessed as increase in E-cadherin in tumor tissue at 50 mg/kg, ip twice a day treated 3 days after tumor cell injection measured for 13 days after tumor implantation by Western blot analysis. It is filed as functional, organism-based. To be noted: time 3.0 day.

Data set [7] relates to C6. The data set is described as follows: Antitumor activity against rat C6 cells inoculated orthotopic Sprague-Dawley rat model assessed as decrease in PGE2 in tumor tissue at 50 mg/kg, ip twice a day treated 3 days after tumor cell injection measured for 13 days after tumor implantation […]. Type of data set: functional, organism-based. To be noted: time 3.0 day. In general terms: Immunoblotting shows a protein as a band on a membrane.

Data set [8] deals with C6. As to the kind of experiment: Antitumor activity against rat C6 cells inoculated orthotopic Sprague-Dawley rat model assessed as decrease in VEGF-A in tumor tissue at 50 mg/kg, ip twice a day treated 3 days after tumor cell injection measured for 13 days after tumor implantation by Western blot analysis. Type of data set: functional, organism-based. To be noted: time 3.0 day.

In data set [9] the test system is C6. The data set is described as follows: Antitumor activity against rat C6 cells inoculated orthotopic Sprague-Dawley rat model assessed as decrease in p-STAT3 in tumor tissue at 50 mg/kg, ip twice a day treated 3 days after tumor cell injection measured for 13 days after tumor implantation by Western blot analysis. To be noted: time 3.0 day. Type of data set: functional, organism-based.

The nature of data set [10]: Toxicity in rat C6 cells inoculated orthotopic Sprague-Dawley rat model assessed as body weight change at 50 mg/kg, ip twice a day administered for 13 days of tumor implantation. To be noted: in vivo, 312 h, time 13 day. It is filed as organism-based.
The test system of another data set is BV-2. The data set is described as follows: Inhibition of MMP9 production in mouse BV-2 cells co-cultured with rat C6 glioma cells at 2 uM incubated for 24 hrs by Western blot analysis. It is filed as functional, cell-based.

One may read the IC50 as the concentration that gives 50% inhibition. For `O=C(NCCc1c[nH]c2ccccc12)c1ccccc1Nc1ccc2nccnc2c1`, the IC50 (in data set [1]; with C6 [2]; in the data set on U-87 MG; in the data set with U-251) was more than 40 µM in each case.

As to `O=C(NCCc1c[nH]c2ccccc12)c1ccccc1Nc1ccc(C(F)(F)F)cc1`, the IC50 in data set [1] is more than 40 µM; in the data set with C6 [2] it was more than 40 µM; in the data set on U-87 MG it was 35.7 µM; in the data set on U-251, 17.3 µM.

With `Cn1nnc2c(C(N)=O)ncn2c1=O` [TEMOZOLOMIDE], the outcome in the data set with C6 [3], with C6 [4], in the data set with C6 [6], in the data set with C6 [7], in the data set with C6 [8] and in the data set on C6 [9] was Active. For the same molecule, the inhibition in vivo at 50 mg/kg in the data set on C6 [5] came out at 54.8%. The Activity entry in data set [10] is on record as “Toxic”.

`Cc1ccc(Nc2ccccc2C(=O)NCCc2c[nH]c3ccccc23)cc1`: the IC50 in data set [1] is 5.96 µM; with C6 [2], more than 40 µM; in the data set with U-87 MG it was 34.7 µM; in the data set with U-251 it was 13.7 µM.

`Nc1ccccc1Nc1ccccc1C(=O)NCCc1c[nH]c2ccccc12`: the IC50 in data set [1] is 1.21 µM; in the data set with C6 [2], more than 40 µM; with U-87 MG, more than 40 µM; in the data set with U-251 it was more than 40 µM. The inhibition result in the data set on BV-2 was “Active”.

For `O=C(NCCc1c[nH]c2ccccc12)c1ccccc1Nc1cncc(Br)c1`, the IC50 in data set [1] is more than 40 µM; with C6 [2], more than 40 µM; in the data set with U-87 MG, more than 40 µM; with U-251 it was 25.1 µM.

Take `O=C(NCCc1c[nH]c2ccccc12)c1ccccc1Nc1cccc(F)c1`: the IC50 is more than 40 µM in data set [1], more than 40 µM in the data set with C6 [2], more than 40 µM with U-87 MG and 20.4 µM in the data set with U-251.

For `COc1ccc(Nc2ccccc2C(=O)NCCc2c[nH]c3ccccc23)cc1`, the IC50 was 6.21 µM in [1], more than 40 µM in the data set with C6 [2], more than 40 µM in the data set with U-87 MG and 32.3 µM with U-251.

On to `O=C(NCCc1c[nH]c2ccccc12)c1ccccc1Nc1cccc(Cl)c1`, for which the IC50 in [1] is more than 40 µM; in the data set on C6 [2], more than 40 µM; in the data set on U-87 MG, more than 40 µM; with U-251, 22.2 µM.

Consider `Cc1ccccc1Nc1ccccc1C(=O)NCCc1c[nH]c2ccccc12`, for which the half-maximal inhibitory concentration (IC50) in [1] was more than 40 µM; in the data set with C6 [2], more than 40 µM; in the data set with U-87 MG, more than 40 µM; in the data set on U-251, 30.5 µM.

On to `O=C(NCCc1c[nH]c2ccccc12)c1ccccc1Nc1ccccc1I`, for which the IC50 in [1] was more than 40 µM; in the data set on C6 [2] it was more than 40 µM; in the data set on U-87 MG it was more than 40 µM; in the data set with U-251, 32.9 µM.

Take `Cc1ccc(Nc2ccccc2C(=O)NCCc2c[nH]c3ccccc23)cn1`: the IC50 was 19.6 µM in [1], more than 40 µM with C6 [2], more than 40 µM with U-87 MG and 17.9 µM in the data set with U-251.

As to `O=C(NCCc1c[nH]c2ccccc12)c1ccccc1Nc1cccc2cccnc12`, the IC50 (in data set [1]; in the data set with C6 [2]; in the data set on U-87 MG; with U-251) was more than 40 µM throughout.

For the molecule `O=C(NCCc1c[nH]c2ccccc12)c1ccccc1Nc1ccccc1Br`, the IC50 in data set [1] is more than 40 µM; in the data set with C6 [2] it was 17.9 µM; with U-87 MG, more than 40 µM; in the data set on U-251 it was 21.4 µM.

On to `O=C(NCCc1c[nH]c2ccccc12)c1ccccc1Nc1ccccc1F`, for which the IC50 is 4.23 µM in data set [1], more than 40 µM in the data set with C6 [2], more than 40 µM in the data set with U-87 MG and 26.2 µM in the data set with U-251.

On to `Cc1ncccc1Nc1ccccc1C(=O)NCCc1c[nH]c2ccccc12`, for which the IC50 in data set [1] is 1.96 µM; in the data set on C6 [2], more than 40 µM; with U-87 MG, more than 40 µM; in the data set with U-251 it was 24.6 µM.

For `O=C(NCCc1c[nH]c2ccccc12)c1ccccc1Nc1ccc(Cl)cc1`, the IC50 is 3.98 µM in data set [1], more than 40 µM in the data set with C6 [2], more than 40 µM with U-87 MG and 17.9 µM in the data set with U-251.

For the molecule `CN(C)c1ccc(Nc2ccccc2C(=O)NCCc2c[nH]c3ccccc23)cc1`, the IC50 in [1] is 1.43 µM; in the data set with C6 [2] it was more than 40 µM; in the data set on U-87 MG, more than 40 µM; in the data set with U-251 it was more than 40 µM. In the data set on BV-2, the inhibition entry is “Active”.

On to `O=C(NCCc1c[nH]c2ccccc12)c1ccccc1Nc1ccc(Br)cc1`, for which the IC50 was 5.68 µM in data set [1], more than 40 µM with C6 [2], more than 40 µM in the data set on U-87 MG and more than 40 µM in the data set on U-251.

Consider `Cc1cncc(Nc2ccccc2C(=O)NCCc2c[nH]c3ccccc23)c1`, for which the IC50 was 17.6 µM in data set [1], more than 40 µM in the data set with C6 [2], more than 40 µM in the data set on U-87 MG and 24.4 µM in the data set with U-251.

`O=C(NCCc1c[nH]c2ccccc12)c1ccccc1Nc1ccccc1Cl`: the IC50 was more than 40 µM in [1], more than 40 µM in the data set on C6 [2], more than 40 µM with U-87 MG and 14.8 µM in the data set on U-251.

For `Cc1cccc(Nc2ccccc2C(=O)NCCc2c[nH]c3ccccc23)c1`, the IC50 was 31 µM in data set [1], more than 40 µM in the data set with C6 [2], 23.4 µM in the data set with U-87 MG and 13.3 µM in the data set on U-251.

Consider `O=C(NCCc1c[nH]c2ccccc12)c1ccccc1Nc1cccnc1`, for which the IC50 in data set [1] was 23.7 µM; in the data set with C6 [2], more than 40 µM; with U-87 MG it was more than 40 µM; in the data set on U-251, 25.2 µM.

Turning to `COc1ccc2[nH]cc(CCNC(C)=O)c2c1` [MELATONIN], the IC50 with C6 [2], in the data set with U-87 MG and in the data set with U-251 was more than 40 µM in each case.

Consider `Cc1ccc(-c2cc(C(F)(F)F)nn2-c2ccc(S(N)(=O)=O)cc2)cc1` [CELECOXIB], for which the IC50 in the data set on C6 [2], with U-87 MG and in the data set on U-251 was more than 40 µM in each case.

Regarding `O=C(NCCc1c[nH]c2ccccc12)c1ccccc1Nc1ccc(F)cc1`, the IC50 in data set [1] is 2.46 µM; in the data set with C6 [2], 27.1 µM; in the data set on U-87 MG it was more than 40 µM; in the data set on U-251, 12.8 µM.

With `CCCCc1ccc(Nc2ccccc2C(=O)NCCc2c[nH]c3ccccc23)cc1`, the IC50 in data set [1] was more than 40 µM; in the data set with C6 [2], more than 33.7 µM; with U-87 MG, more than 40 µM; in the data set on U-251, 18.2 µM.

For the molecule `O=C(NCCc1c[nH]c2ccccc12)c1ccccc1Nc1cccnc1Cl`, the IC50 in data set [1] is 2.96 µM; in the data set on C6 [2] it was 24.1 µM; in the data set with U-87 MG it was more than 40 µM; in the data set on U-251 it was 27.5 µM.

Turning to `O=C(NCCc1c[nH]c2ccccc12)c1ccccc1Nc1cccc(Br)c1`, the IC50 in data set [1] was more than 40 µM; in the data set with C6 [2], more than 40 µM; in the data set on U-87 MG, more than 40 µM; in the data set with U-251, 21 µM.
